Measured values published in patent US8835617B2, “Polynucleotides encoding a human TRIM-Cyp fusion polypeptide, compositions thereof, and methods of using same” (priority 2008, dated 2014).
Read-outs that look alike come from different tables or passages of the source. Marks after values point to notes of the source that are not given here.

Key:
HIV-1NL4-3 = assay: HIV-1 challenge of CD4+ T cell cultures with <25% transduced cells; assay type: cell-based
Description: These conditions would be more realistic of hT5Cyp therapy in patients. […] The survival advantage of CD4^+ T cell becomes apparent when analyzing the viability of the cells by forward versus side-scatter and gating on live lymphocytes; a method that had to be adopted since the cells were fixed in paraformaldehyde for flow cytometry analysis.

HIV-1 [1] = conditions: quantitative PCR, Jurkat
Experimental: Since the objective was to engineer a fully human HIV-1 restriction factor, hCypA was the fused at 10 different positions along the length of hT5α (FIG. 44A).
Total cellular DNA was extracted from 2×10^6 Jurkat T cells using the DNeasy Blood and Tissue kit (Qiagen). qPCR was performed with the Applied Biosystems 7900HT system, using 250 ng total DNA and Taqman Gene Expression master mix (Applied Biosystems). Each experimental condition was performed in triplicate and data analyzed using the SDS software, version 2.2.2 (Applied Biosystems).

HIV-1 [2] = test system: HIV-1
Description: The timing of HIV-1 infection was changed to allow for a stabilization of engraftment prior to assessment of viral replication.
HIV-1 down-regulates cell-surface expression of CD4 (Chen et al., 1996). […] Finally, tissue sections of thymi were directly examined for human T cells (using anti-CD3 antibody) and HIV-1 p24 antigen.
The MLNs are closest to the site of HIV-1 infection (i.p), while the PLNs are further away.
Rag2^−/−γc^−/− mice on a BALB/c background (provided by M. Ito; Central Institute for Experimental Animals, Kawasaki, Japan) were bred and maintained under specific pathogen-free conditions in accordance with the guidelines of the animal facility at the Institute for Research in Biomedicine. CL2 MBP (clodronate) was from Roche Diagnostics (Mannheim, Germany). Preparation of liposomes containing CL2 MBP was done as described previously (Van Rooijen and Sanders, 1994). 6-10 week-old mice received 100 ul of clodronate liposomes intraperitoneally (i.p.) 24 hours prior to irradiation using a single sublethal dose of 4.0 Gray (Gy) from a Cesium 137 source (Biobeam 8000, STS GmbH, Braunschweig, Germany) at 3.75 Gy/min. […] CD4^+ T cell engraftment and maintenance in mice was measured by flow cytometry. To obtain peripheral blood cells and plasma, mice were bled from the retro-orbital venous sinus under anesthesia and red blood cells were lysed. When sacrificed, single cell suspensions from organs were prepared. For FACS analysis monoclonal antibodies against the following antigens were used: CD3 (UCHT1), CD4 (13B8.2), CD8 (B9.11), p24 (clone KC57) (all Immunotech/Beckman Coulter, Marseille, France), CD45 (HI30) (Caltag, Burlingame, Calif.). Intracellular staining for p24 was performed on single cell suspensions from mesenteric lymph nodes and thymus following staining with anti-CD3 antibody. Cells were washed, permeabilized, and fixed by treatment with BD Cytofix/Cytoperm (BD Pharmingen) and stained with anti-p24 antibody in BD Permwash solution (BD Pharmingen) following the manufacturer's instructions. Plasma HIV RNA concentrations were determined by Cobas Amplicor RT-PCR assay (Roche Diagnostics, Basel, Switzerland). Immunohistochemical stainings were performed as previously described (Baenziger et al., 2006). To assess nonspecific binding, tissue from untransplanted and uninfected transplanted mice was stained as controls.
Rag2^−/−γc^−/− mice on a BALB/c background (provided by M. Ito; Central Institute for Experimental Animals, Kawasaki, Japan) were bred and maintained under specific pathogen-free conditions in accordance with the guidelines of the animal facility at the Institute for Research in Biomedicine (Bellinzona) and the Swiss Federal Veterinary Office (Bern). […] CD4^+ T cell engraftment and maintenance in mice was measured by flow cytometry. […]

hT5Cyp: human TRIM5α fused at serine 322 to human cyclophilin A, SEQ ID NO:12
RT activity in the culture supernatant (HIV-1NL4-3; mixed culture): significantly lower
day of peak viral replication (HIV-1NL4-3; mixed culture): 28 days
transduced cells in the culture after HIV-1 infection (HIV-1NL4-3; start <25% transduced): 75%
accumulation of viral cDNA (HIV-1 [1]): blocked the accumulation of viral cDNA
p24^+ transduced human T cells (HIV-1 [2]; MLN or PLN, CCR5-tropic HIV-1): Few if any
mean viral load (HIV-1 [2]; n=8 per group): 1.6×10^5 (+/−1.1×10^5) copies viral RNA/ml plasma
down-regulation of cell surface CD4 (HIV-1 [2]; thymi and lymph nodes): prevented the down-regulation of cell surface CD4
p24^+ transduced human T cells (HIV-1 [2]; thymi or mesenteric lymph nodes): Few if any
